Measurements: patent US20150175655A1 (priority 2012, published 2015)

Target: T1, NS3 genotype 3a protease (UniProt Q81258)
T1 construct: Purified NS3 protease domain (amino acids 1-181) of the genotype 1b and 3a virus were generated as above; fused on or other part: N-terminal hexahistidine tag and rTEV protease cleavage site (vector p28-N6H-Tev-NS3(181)3)
T1 sequence (Q81258 1033-1663): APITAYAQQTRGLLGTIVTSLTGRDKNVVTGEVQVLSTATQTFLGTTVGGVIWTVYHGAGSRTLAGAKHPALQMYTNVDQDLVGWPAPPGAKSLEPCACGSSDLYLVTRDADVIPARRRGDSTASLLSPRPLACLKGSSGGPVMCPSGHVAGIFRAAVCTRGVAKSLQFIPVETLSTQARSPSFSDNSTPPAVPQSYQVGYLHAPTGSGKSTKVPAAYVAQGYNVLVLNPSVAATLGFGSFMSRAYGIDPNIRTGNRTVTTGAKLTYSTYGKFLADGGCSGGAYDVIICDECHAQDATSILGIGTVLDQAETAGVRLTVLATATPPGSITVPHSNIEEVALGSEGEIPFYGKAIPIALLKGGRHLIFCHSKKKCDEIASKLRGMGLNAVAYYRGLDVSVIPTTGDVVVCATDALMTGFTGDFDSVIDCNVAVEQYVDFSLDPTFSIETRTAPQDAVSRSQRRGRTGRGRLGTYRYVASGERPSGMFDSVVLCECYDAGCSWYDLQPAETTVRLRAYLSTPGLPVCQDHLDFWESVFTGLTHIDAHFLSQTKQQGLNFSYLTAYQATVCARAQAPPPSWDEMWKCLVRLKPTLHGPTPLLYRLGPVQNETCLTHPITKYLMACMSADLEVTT
Experiment: Ki determination, NS3 protease genotype 3a (fluorogenic depsipeptide substrate)
Format: biochemical, hepatitis C virus
Conditions: 200 pM enzyme, 20 μM NS4A peptide, 2 μM substrate, read-out: Ki 3A
Text: The coding sequences for the genotype 3 HCV protease domain was amplified by RT-PCR using a Titan One Tube RT-PCR Kit (Roche, Indianapolis, Ind.) and RNA extracted from HCV-positive human serum (BBI Diagnostics, MA) using a QIAmp UltraSens Virus Kit (Qiagen, Valencia, Calif.). 5′ PCR primers were designed to encode N-terminal hexahistidine tags and to insert in-frame rTEV protease cleavage sites into the NS3 protease coding sequences. The resulting DNA fragments were cloned into pET28 yielding the expression vectors p28-N6H-Tev-NS3(181)1a and p28-N6H-Tev-NS3(181)3, respectively.
BL21AI bacteria (Invitrogen, Carlsbad, Calif.) were transformed with genotype 1b or 3 NS3 expression vectors and used to inoculate a 20 L fermentation vessel (Sartorius BBI System Inc., Bethlehem, Pa.), containing 18 L of fresh 2YT medium supplemented with 50 μg/mL kanamycin. When cell densities reached an OD600 of 1, the temperature of the cultures was reduced from 37° C. to 28° C. and induction was immediately initiated by the addition of 30 μM ZnSO4, 14 mM L-arabinose and 1 mM Isopropyl β-D-thiogalactoside (IPTG) final concentrations. Cells were harvested by centrifugation four hours post-induction and were stored as frozen pellets at −80° C. prior to NS3 protein purification.
Bacterial pellets collected from the expression of genotype 3 HCV NS3 protease were homogenized in Lysis Buffer (25 mM tris, pH 7.5 buffer containing 150 mM NaCl and 1 mM phenylmethanesulfonyl fluoride (PMSF)) and passed through a microfluidizer at 18,000 pounds/in^2. Homogenized cell lysates were centrifuged at 30,000×g for 30 minutes at 4° C. The resulting P1 pellets were washed with Wash Buffer I (25 mM tris, pH 7.5 containing 1% CHAPS) followed by centrifugation at 10,000×g for 30 minutes at 4° C. […] The resulting P3 pellets were resuspended in Solubilization Buffer (20 ml of 25 mM tris, pH 7.5 containing 150 mM NaCl and 8 M urea) and incubated at 4° C. for one hour. Solubilized proteins were passed through a 0.45 micron filter. Protein concentrations were measured and the solutions were adjusted to 40 mM DTT, incubated for 30 minutes at 4° C. and then quickly diluted into Refolding Buffer (25 mM tris, pH 8.5, 0.8 M Guanidine-HCl, 0.4 M L-Arginine, 10 mM ZnSO4) while stirring. Protein solutions were incubated at 4° C. overnight to allow refolding. Refolded proteases were centrifuged at 30,000×g for 10 minutes to remove residual precipitates. Final protein concentrations were then measured and the NS3 proteases were aliquoted, snap frozen in liquid nitrogen and stored at −80° C.
Purified NS3 protease domain (amino acids 1-181) of the genotype 1b and 3a virus were generated as above. The internally quenched fluorogenic depsipeptide substrate Ac-DED(Edans)-EEAbuψ[COO]ASK(Dabcyl)-NH2 and a synthetic peptide containing the hydrophobic core residues of the NS4A protein cofactor ([…]; NS4A peptide) were obtained from Anaspec, Inc. (San Jose, Calif.). Other chemicals and biochemicals were of reagent grade or better and were purchased from standard suppliers.
Reactions were run at room temperature in buffer consisting of 50 mM HEPES, 40% glycerol, 0.05% Triton X-100, 10 mM DTT, and 10% DMSO. The final assay solutions contained 50 pM NS3 genotype 1b protease or 200 pM genotype 3a protease, 20 μM NS4A peptide, and 4 μM substrate (genotype 1 b) or 2 μM substrate (genotype 3a). Inhibitor concentrations varied from 100 nM to 5 pM in 3-fold dilutions, and no-inhibitor controls were included.
Compound dilutions were made in DMSO at 20× final concentration. Reaction mixtures were prepared in 96-well assay plates. A solution of enzyme and NS4A peptide in assay buffer (25 μL volume with both reagents at 4× final concentration) was mixed with 45 μL assay buffer and 5 μL of either inhibitor or DMSO, and pre-incubated at room temperature for 1 hour. The reaction was started by addition of 25 μL substrate solution at 4× final concentration. […]

In order of falling Ki:
1. CC[C@@H]1[C@@H]2CN(C(=O)[C@H](C(C)(C)C)NC(=O)O[C@]3(C)CCC[C@H]3CCCCCc3nc4ccc(OC)cc4nc3O2)[C@@H]1C(=O)N[C@]1(C(=O)NS(=O)(=O)C2(C)CC2)C[C@H]1CC [Example 56, (3aR,7S,10S,11S,12R,24aR)-7-tert-butyl-11-ethyl-N-[(1R,2R)-2-ethyl-1-{[(1-methylcyclopropyl)sulfonyl]carbamoyl}cyclopropyl]-16-methoxy-3a-methyl-5,8-dioxo-1,2,3,3a,5,6,7,8,11,12,20,21,22,23,24,24a-hexadecahydro-10H-9,12-methanocyclopenta[18,19][1,10,3,6]dioxadiazacyclononadecino[11,12-b]quinoxaline-10-carboxamide]  1 nM
2. CC[C@@H]1[C@@H]2CN(C(=O)[C@H](C(C)(C)C)NC(=O)O[C@@H]3C[C@H]3CCCCCc3nc4ccc(OC)cc4nc3O2)[C@@H]1C(=O)N[C@]1(C(=O)NS(=O)(=O)C2(C)CC2)C[C@H]1CC [Example 4, (1aR,5S,8S,9S,10R,22aR)-5-tert-butyl-9-ethyl-N-[(1R,2R)-2-ethyl-1-{[(1-methylcyclopropyl)sulfonyl]carbamoyl}cyclopropyl]-14-methoxy-3,6-dioxo-1,1a,3,4,5,6,9,10,18,19,20,21,22,22a-tetradecahydro-8H-7,10-methanocyclopropa[18,19][1,10,3,6]dioxadiazacyclononadecino[11,12-b]quinoxaline-8-carboxamide]  0.56 nM
3. CC[C@@H]1[C@@H]2CN(C(=O)[C@H](C(C)(C)C)NC(=O)O[C@]3(C)CCC[C@H]3CCCCCc3nc4ccc(OC)cc4nc3O2)[C@@H]1C(=O)N[C@]1(C(=O)NS(=O)(=O)C2CC2)C[C@H]1C(F)F [Example 40, (3aR,7S,10S,11S,12R,24aR)-7-tert-butyl-N-[(1R,2R)-1-[(cyclopropylsulfonyl)carbamoyl]-2-(difluoromethyl)cyclopropyl]-11-ethyl-16-methoxy-3a-methyl-5,8-dioxo-1,2,3,3a,5,6,7,8,11,12,20,21,22,23,24,24a-hexadecahydro-10H-9,12-methanocyclopenta[18,19][1,10,3,6]dioxadiazacyclononadecino[11,12-b]quinoxaline-10-carboxamide]  0.18 nM
4. CC[C@@H]1[C@@H]2CN(C(=O)[C@H](C(C)(C)C)NC(=O)O[C@@H]3C[C@H]3CCCCC(F)(F)c3nc4ccccc4nc3O2)[C@@H]1C(=O)N[C@]1(C(=O)NS(=O)(=O)C2CC2)C[C@H]1C(F)F [Example 53, (1aR,5S,8S,9S,10R,22aR)-5-tert-butyl-N-[(1R,2R)-1-[(cyclopropylsulfonyl)carbamoyl]-2-(difluoromethyl)cyclopropyl]-9-ethyl-18,18-difluoro-3,6-dioxo-1,1a,3,4,5,6,9,10,18,19,20,21,22,22a-tetradecahydro-8H-7,10-methanocyclopropa[18,19][1,10,3,6]dioxadiazacyclononadecino[11,12-b]quinoxaline-8-carboxamide]  0.09 nM

Same assay, conditions: read-out: Ki 3A, 200 pM enzyme, 20 μM NS4A peptide, 2 μM substrate

In order of falling Ki:
1. COc1ccc2nc3c(nc2c1)O[C@H]1CN(C(=O)[C@H](C(C)(C)C)NC(=O)O[C@@H]2C[C@H]2CCCCC3)[C@H](C(=O)N[C@]2(C(=O)NS(=O)(=O)C3(C)CC3)C[C@H]2CCF)[C@@H]1C [Example 23, (1aR,5S,8S,9S,10R,22aR)-5-tert-butyl-N-[(1R,2S)-2-(2-fluoroethyl)-1-{[(1-methylcyclopropyl)sulfonyl]carbamoyl}cyclopropyl]-14-methoxy-9-methyl-3,6-dioxo-1,1a,3,4,5,6,9,10,18,19,20,21,22,22a-tetradecahydro-8H-7,10-methanocyclopropa[18,19][1,10,3,6]dioxadiazacyclononadecino[11,12-b]quinoxaline-8-carboxamide]  1.1 nM
2. COc1ccc2nc3c(nc2c1)O[C@H]1CN(C(=O)[C@H](C(C)(C)C)NC(=O)O[C@@H]2C[C@H]2CCCCC3)[C@H](C(=O)N[C@]2(C(=O)NS(=O)(=O)C3CC3)C[C@H]2CC(F)F)[C@@H]1C [Example 24, (1aR,5S,8S,9S,10R,22aR)-5-tert-butyl-N-[(1R,2S)-1-[(cyclopropylsulfonyl)carbamoyl]-2-(2,2-difluoroethyl)cyclopropyl]-14-methoxy-9-methyl-3,6-dioxo-1,1a,3,4,5,6,9,10,18,19,20,21,22,22a-tetradecahydro-8H-7,10-methanocyclopropa[18,19][1,10,3,6]dioxadiazacyclononadecino[11,12-b]quinoxaline-8-carboxamide]  0.92 nM
3. CC[C@@H]1[C@@H]2CN(C(=O)[C@H](C3CCCC3)NC(=O)O[C@@H]3C[C@H]3CCCCCc3nc4ccc(OC)cc4nc3O2)[C@@H]1C(=O)N[C@]1(C(=O)NS(=O)(=O)C2CC2)C[C@H]1C(F)F [Example 15, (1aR,5S,8S,9S,10R,22aR)-5-cyclopentyl-N-[(1R,2R)-1-[(cyclopropylsulfonyl)carbamoyl]-2-(difluoromethyl)cyclopropyl]-9-ethyl-14-methoxy-3,6-dioxo-1,1a,3,4,5,6,9,10,18,19,20,21,22,22a-tetradecahydro-8H-7,10-methanocyclopropa[18,19][1,10,3,6]dioxadiazacyclononadecino[11,12-b]quinoxaline-8-carboxamide]  0.3 nM
4. C=C[C@@H]1C[C@]1(NC(=O)[C@@H]1[C@H](C)[C@@H]2CN1C(=O)[C@H](C(C)(C)C)NC(=O)O[C@@H]1C[C@H]1CCCCCc1nc3ccc(OC)cc3nc1O2)C(=O)NS(=O)(=O)C1CC1 [Example 48, (1aR,5S,8S,9S,10R,22aR)-5-tert-butyl-N-{(1R,2S)-1-[(cyclopropylsulfonyl)carbamoyl]-2-ethenylcyclopropyl}-14-methoxy-9-methyl-3,6-dioxo-1,1a,3,4,5,6,9,10,18,19,20,21,22,22a-tetradecahydro-8H-7,10-methanocyclopropa[18,19][1,10,3,6]dioxadiazacyclononadecino[11,12-b]quinoxaline-8-carboxamide]  0.09 nM
